One test relates to SCLC cell lines. Kind of test: calcium mobilisation tests in SCLC cell lines. The format is cell-based. To be noted: 20 µM. On the procedure: These responses can be blocked by 20 µM antagonist D in 3 of 3 lines tested (H69, H345, H510A) and by 20 µM antagonist G in H510A.
On the technique in general: Calcium flux is commonly read through the fluorescence of an indicator in the cells.

Test [1] has as its system Swiss 3T3 cells. Conditions: cited from earlier work.
In test [2] the test system is Swiss 3T3 cells. Conditions: earlier patent application and references 10, 11; cited from earlier work.
For test [3], the system named is small cell lung cancer (SCLC) cell line. The test is described as follows: growth in vitro of small cell lung cancer cell lines. Format: cell-based. As for the experimental part:
The ability of antagonists A, D and G to inhibit the growth in vitro of a small cell lung cancer (SCLC) cell line was tested. The cell lines used were • a) H69 and H128 from the ATCC in Maryland USA; • b) H209, H345 and H510A obtained from Dr. A. Gazdar at NCI, NIH, Maryland USA; • c) UCH25 from Dr. P. Beverley, University College, London, England.

The subject of test [4] is Swiss 3T3 cells. Kind of test: vasopressin-stimulated DNA synthesis in Swiss 3T3 cells. The format is cell-based, murine.
Test [5] has as its system Swiss 3T3 cells. The test is described as follows: specificity: DNA synthesis with a variety of other mitogens in Swiss 3T3 cells. The format is cell-based, murine.
The test system of test [6] is Swiss 3T3 cells. Conditions: for IC50: read-out: IC50 for inhibition of mitogenesis induced by bradykinin, 9.4 nM bradykinin, 1 µg/ml insulin.
The next test has as its system vasopressin receptor. To be noted: Swiss 3T3 cells; cited from earlier work.
In another test the test system is bombesin receptor. Conditions: Swiss 3T3 cells; cited from earlier work.
The test system of test [7] is Swiss 3T3 cells. The test is described as follows: GRP-induced DNA synthesis ([3H]thymidine incorporation) in quiescent Swiss 3T3 cells. Format: cell-based, murine. (Uptake of a labelled nucleoside into DNA is a usual measure of proliferation.)

The source of these data is EP0406297B1, “Medical use of neuropeptide Antagonist G” (IMPERIAL CANCER RESEARCH TECHNOLOGY LIMITED, priority 1988, dated 1996).

Residues, ends and D or L forms follow the SMILES beside them.

A word on the IC50: it is the concentration that gives 50% inhibition. For `CC(C)C[C@H](NC(=O)[C@H](CC(C)C)NC(=O)[C@@H](Cc1c[nH]c2ccccc12)NC(=O)[C@H](Cc1ccccc1)NC(=O)[C@@H](Cc1c[nH]c2ccccc12)NC(=O)[C@H](CCC(N)=O)NC(=O)[C@@H](Cc1ccccc1)NC(=O)[C@@H]1CCCN1C(=O)[C@H](CCCCN)NC(=O)[C@@H]1CCCN1C(=O)[C@H](N)CCCNC(=N)N)C(N)=O` [antagonist D, D-Arg-Pro-Lys-Pro-D-Phe-Gln-D-Trp-Phe-D-Trp-Leu-Leu-NH2] (HELM PEPTIDE1{[dR].P.K.P.[dF].Q.[dW].F.[dW].L.L.[am]}$$$$V2.0), the “SCLC lines in which the Ca2+ responses were blocked, of lines tested” value in the test on SCLC cell lines is 3 of 3. Moreover, in the test on SCLC cell lines (H69, H345, H510A), the “transient elevation of intracellular [Ca2+] in response to bradykinin, GRP and vasopressin” value is on record as “blocked”. The “inhibition of vasopressin-stimulated DNA synthesis” value in the test with Swiss 3T3 cells [1] is recorded as “inhibit”. Moreover, the “potency as bombesin antagonist relative to antagonist A” value in the test with Swiss 3T3 cells [2] was 5-10 fold. The “potency in inhibiting growth of SCLC relative to Antagonist A” value in test [3] is listed as 5-10 fold. Also, in test [3] (SCLC cell lines), the “cell lines in which growth inhibition was found, of cell lines tested” value is reported as 6 of 6 and the “concentration that abolishes cell growth” value was 40 to 50 µM. In addition, the “inhibition of vasopressin-induced DNA synthesis” value in the test on Swiss 3T3 cells [4] (20 µM antagonist D, LψLB at concentrations that strongly inhibited GRP-induced mitogenesis (1 µM)) is “potent inhibitor”. Further, in the test on Swiss 3T3 cells [5], the “inhibition of mitogenesis stimulated by EGF, PDGF, phorbol dibutyrate, cholera toxin and 8-bromo-cAMP” value is on record as “Neither of them inhibited”. Further, the “effect against various bombesin-like peptides (DNA synthesis)” value in the test on Swiss 3T3 cells [5] (GRP 3.6 nM, bombesin 1.2 nM, litorin 1.8 nM, 20 µM antagonist D or 1 µM LψLB) is reported as “effective”. For the same compound, in the test on Swiss 3T3 cells [5] (VIP 3.0 nM, 20 µM antagonist D or 1 µM LψLB), the “inhibition of mitogenesis stimulated by VIP” value is “Neither antagonist D nor [Leu^13-ψ(CH2NH)Leu^14]bombesin inhibited”. In addition, the “increase in potency against each mitogen relative to antagonist A” value in the test with Swiss 3T3 cells [5] (mitogens bombesin/GRP, bradykinin, vasopressin) is 5-10 fold. Also, the IC50 with Swiss 3T3 cells [6] was found to be 8.3 µM. Also, the “inhibition of [3H]vasopressin binding” value in the test on vasopressin receptor is on record as “inhibit”.

For the compound “Arg-Pro-Lys-Pro-Gln-Gln-Phe-Phe-Gly-Leu-Met-NH2 [substance P]”, in the test on bombesin receptor, the “binding of [125I]GRP” value was “neither inhibits”.

For the compound `CSCC[C@H](NC(=O)[C@H](CC(C)C)NC(=O)[C@@H](Cc1c[nH]c2ccccc12)NC(=O)[C@H](Cc1ccccc1)N(C)C(=O)[C@@H](Cc1c[nH]c2ccccc12)NC(=O)[C@@H](N)CCCNC(=N)N)C(N)=O` [antagonist G, Arg.D-Trp.MePhe.D-Trp-Leu-Met-NH2] (HELM PEPTIDE1{R.[dW].[meF].[dW].L.M.[am]}$$$$V2.0), the “transient elevation of intracellular [Ca2+] in response to bradykinin, GRP and vasopressin” value in the test with SCLC cell lines (H510A) was “blocked”. For the same compound, in test [3] (H69, H209, H345 and H510A), the “inhibition of growth in SCLC cells, compared with antagonist D” value was “equipotent with antagonist D”. The “cell lines in which growth inhibition was found, of cell lines tested” value in [3] (SCLC cell lines) was 4 of 4. In addition, the “potency as antagonist of vasopressin induced cell growth, compared with Antagonist D” value in the test with Swiss 3T3 cells [4] (Swiss 3T3 cells) is reported as “as potent as Antagonist D”. For the same compound, the “potency as antagonist of growth induced by GRP, compared with Antagonist D” value in the test on Swiss 3T3 cells [7] is reported as “less potent”. Also, the “potency as antagonist of growth induced by bradykinin, compared with Antagonist D” value with Swiss 3T3 cells [6] (Swiss 3T3 cells) is “less potent”.

As to `CC(C)C[C@H](NC(=O)[C@H](CC(C)C)NC(=O)[C@@H](Cc1c[nH]c2ccccc12)NC(=O)[C@H](Cc1ccccc1)NC(=O)[C@@H](Cc1c[nH]c2ccccc12)NC(=O)[C@H](CCC(N)=O)NC(=O)[C@H](CCC(N)=O)NC(=O)[C@@H]1CCCN1C(=O)[C@H](CCCCN)NC(=O)[C@H]1CCCN1C(=O)[C@H](N)CCCNC(=N)N)C(N)=O` [antagonist A, D-Arg-D-Pro-Lys-Pro-Gln-Gln-D-Trp-Phe-D-Trp-Leu-Leu-NH2] (HELM PEPTIDE1{[dR].[dP].K.P.Q.Q.[dW].F.[dW].L.L.[am]}$$$$V2.0), in the test with Swiss 3T3 cells [1], the “inhibition of vasopressin-stimulated DNA synthesis” value is “inhibit”. In addition, the “concentrations effective in inhibiting growth of SCLC” value in test [3] (H69, H82, H128, H417 and UCH25) fell in the range of 50 to 150 µM. For the same compound, the “cell lines in which growth inhibition was found, of cell lines tested” value in test [3] (SCLC cell lines) is on record as 5 of 5. In addition, the IC50 in the test on Swiss 3T3 cells [6] was 90 µM. Besides, the “inhibition of [3H]vasopressin binding” value in the test on vasopressin receptor is “inhibit”.
